Laboratory results taken from the supplement of paper PMC10307832.

What was measured:
Assay in all cases: relative viability (nuclei count vs DMSO), 5 days (fraction); higher = more cells survive
NCI-H1755 = system: NCI-H1755
Summary of the method: (§1)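 Relative viability divides the nuclei count in treated wells by that in vehicle wells. Lung cancer cell lines were seeded in 1536-well plates, dosed by pin tool the next day, and fixed and stained after 5 days in one step with final 0.05% Triton X-100, 1% formaldehyde and 1 ug/ml Hoechst. Dosing was a single drug or a fixed anchor-drug dose plus five library-drug doses (not always all listed) in √10 steps, and values are medians of duplicate plates imaged at 4×.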

NCI-H441 = system: NCI-H441
Summary of the method: as §1

NCI-H522 = system: NCI-H522
Summary of the method: as §1

LCLC-97TM1 = system: LCLC-97TM1
Summary of the method: as §1

NCI-H2405 = system: NCI-H2405
Summary of the method: as §1

LK-2 = system: LK-2
Summary of the method: as §1

HCC-78 = system: HCC-78
Summary of the method: as §1

NCI-H520 = system: NCI-H520
Summary of the method: as §1

NCI-H1355 = system: NCI-H1355
Summary of the method: as §1

NCI-H2342 = system: NCI-H2342
Summary of the method: as §1

NCI-H2228 = system: NCI-H2228
Summary of the method: as §1

HCC-827 = system: HCC-827
Summary of the method: as §1

NCI-H2009 = system: NCI-H2009
Summary of the method: as §1

ChaGo-K-1 = system: ChaGo-K-1
Summary of the method: as §1

NCI-H647 = system: NCI-H647
Summary of the method: as §1

NCI-H2085 = system: NCI-H2085
Summary of the method: as §1

LOU-NH91 = system: LOU-NH91
Summary of the method: as §1

NCI-H661 = system: NCI-H661
Summary of the method: as §1

PC-3 [JPC-3] = system: PC-3 [JPC-3]
Summary of the method: as §1

NCI-H1395 = system: NCI-H1395
Summary of the method: as §1

SK-MES-1 = system: SK-MES-1
Summary of the method: as §1

NCI-H1993 = system: NCI-H1993
Summary of the method: as §1

Compound: C=C1C(=O)O[C@@H](CCCCCCCC)[C@@H]1C(=O)O [C-75] + O=C(CCCCCCC(=O)Nc1ccccc1)NO [Vorinostat] (partner 1 µM)
- relative viability (NCI-H1755; first compound 0.08 µM): 0.732
- relative viability (NCI-H1755; first compound 0.253 µM): 0.868
- relative viability (NCI-H1755; first compound 0.8 µM): 0.692
- relative viability (NCI-H1755; first compound 2.53 µM): 0.774
- relative viability (NCI-H1755; first compound 8 µM): 0.732
- relative viability (NCI-H441; first compound 0.08 µM): 0.82
- relative viability (NCI-H441; first compound 0.253 µM): 0.885
- relative viability (NCI-H441; first compound 0.8 µM): 0.764
- relative viability (NCI-H441; first compound 8 µM): 0.568
- relative viability (NCI-H522; first compound 0.08 µM): 0.912
- relative viability (NCI-H522; first compound 0.253 µM): 0.811
- relative viability (NCI-H522; first compound 0.8 µM): 0.905
- relative viability (NCI-H522; first compound 2.53 µM): 0.655
- relative viability (NCI-H522; first compound 8 µM): 0.868
- relative viability (LCLC-97TM1; first compound 0.08 µM): 0.864
- relative viability (LCLC-97TM1; first compound 0.253 µM): 0.817
- relative viability (LCLC-97TM1; first compound 0.8 µM): 0.49
- relative viability (LCLC-97TM1; first compound 2.53 µM): 0.413
- relative viability (LCLC-97TM1; first compound 8 µM): 0.455
- relative viability (NCI-H2405; first compound 0.08 µM): 1
- relative viability (NCI-H2405; first compound 0.253 µM): 0.831
- relative viability (NCI-H2405; first compound 0.8 µM): 0.313
- relative viability (NCI-H2405; first compound 2.53 µM): 0.708
- relative viability (NCI-H2405; first compound 8 µM): 0.891
- relative viability (LK-2; first compound 0.08 µM): 0.387
- relative viability (LK-2; first compound 0.253 µM): 0.315
- relative viability (LK-2; first compound 0.8 µM): 0.319
- relative viability (LK-2; first compound 2.53 µM): 0.286
- relative viability (LK-2; first compound 8 µM): 0.324
- relative viability (HCC-78; first compound 0.08 µM): 0.372
- relative viability (HCC-78; first compound 0.253 µM): 0.668
- relative viability (HCC-78; first compound 0.8 µM): 0.373
- relative viability (HCC-78; first compound 8 µM): 0.372
- relative viability (NCI-H520; first compound 0.08 µM): 0.647
- relative viability (NCI-H520; first compound 0.253 µM): 0.716
- relative viability (NCI-H520; first compound 0.8 µM): 0.637
- relative viability (NCI-H520; first compound 2.53 µM): 0.577
- relative viability (NCI-H520; first compound 8 µM): 0.592
- relative viability (NCI-H1355; first compound 0.08 µM): 0.643
- relative viability (NCI-H1355; first compound 0.253 µM): 0.696
- relative viability (NCI-H1355; first compound 0.8 µM): 0.67
- relative viability (NCI-H1355; first compound 2.53 µM): 0.52
- relative viability (NCI-H1355; first compound 8 µM): 0.639
- relative viability (NCI-H2342; first compound 0.08 µM): 0.695
- relative viability (NCI-H2342; first compound 0.253 µM): 0.728
- relative viability (NCI-H2342; first compound 0.8 µM): 0.71
- relative viability (NCI-H2342; first compound 2.53 µM): 0.727
- relative viability (NCI-H2342; first compound 8 µM): 0.736
- relative viability (NCI-H2228; first compound 0.08 µM): 0.617
- relative viability (NCI-H2228; first compound 0.253 µM): 0.681
- relative viability (NCI-H2228; first compound 0.8 µM): 0.661
- relative viability (NCI-H2228; first compound 2.53 µM): 0.67
- relative viability (NCI-H2228; first compound 8 µM): 0.562
- relative viability (HCC-827; first compound 0.253 µM): 0.662
- relative viability (HCC-827; first compound 0.8 µM): 0.721
- relative viability (HCC-827; first compound 8 µM): 0.88
- relative viability (NCI-H2009; first compound 0.08 µM): 0.764
- relative viability (NCI-H2009; first compound 0.253 µM): 0.668
- relative viability (NCI-H2009; first compound 0.8 µM): 0.469
- relative viability (NCI-H2009; first compound 2.53 µM): 0.783
- relative viability (NCI-H2009; first compound 8 µM): 0.715
- relative viability (ChaGo-K-1; first compound 0.08 µM): 0.759
- relative viability (ChaGo-K-1; first compound 0.253 µM): 0.772
- relative viability (ChaGo-K-1; first compound 0.8 µM): 0.701
- relative viability (ChaGo-K-1; first compound 2.53 µM): 0.609
- relative viability (ChaGo-K-1; first compound 8 µM): 0.668
- relative viability (NCI-H647; first compound 0.08 µM): 0.47
- relative viability (NCI-H647; first compound 0.253 µM): 0.873
- relative viability (NCI-H647; first compound 0.8 µM): 0.638
- relative viability (NCI-H647; first compound 2.53 µM): 0.464
- relative viability (NCI-H647; first compound 8 µM): 0.486
- relative viability (NCI-H2085; first compound 0.08 µM): 0.801
- relative viability (NCI-H2085; first compound 0.253 µM): 0.749
- relative viability (NCI-H2085; first compound 0.8 µM): 0.752
- relative viability (NCI-H2085; first compound 2.53 µM): 0.664
- relative viability (NCI-H2085; first compound 8 µM): 0.738
- relative viability (LOU-NH91; first compound 0.08 µM): 0.939
- relative viability (LOU-NH91; first compound 0.253 µM): 0.939
- relative viability (LOU-NH91; first compound 0.8 µM): 0.828
- relative viability (LOU-NH91; first compound 8 µM): 0.898
- relative viability (NCI-H661; first compound 0.08 µM): 0.762
- relative viability (NCI-H661; first compound 0.253 µM): 0.828
- relative viability (NCI-H661; first compound 0.8 µM): 0.741
- relative viability (NCI-H661; first compound 2.53 µM): 0.657
- relative viability (NCI-H661; first compound 8 µM): 0.774
- relative viability (PC-3 [JPC-3]; first compound 0.08 µM): 0.837
- relative viability (PC-3 [JPC-3]; first compound 0.253 µM): 0.819
- relative viability (PC-3 [JPC-3]; first compound 0.8 µM): 0.415
- relative viability (PC-3 [JPC-3]; first compound 2.53 µM): 0.583
- relative viability (PC-3 [JPC-3]; first compound 8 µM): 0.764
- relative viability (NCI-H1395; first compound 0.08 µM): 0.649
- relative viability (NCI-H1395; first compound 0.253 µM): 0.768
- relative viability (NCI-H1395; first compound 2.53 µM): 0.634
- relative viability (NCI-H1395; first compound 8 µM): 0.711
- relative viability (SK-MES-1; first compound 0.08 µM): 1.08
- relative viability (SK-MES-1; first compound 0.253 µM): 1.12
- relative viability (SK-MES-1; first compound 0.8 µM): 1.06
- relative viability (SK-MES-1; first compound 2.53 µM): 1.04
- relative viability (SK-MES-1; first compound 8 µM): 1.1
- relative viability (NCI-H1993; first compound 0.08 µM): 0.719
- relative viability (NCI-H1993; first compound 0.253 µM): 0.842
- relative viability (NCI-H1993; first compound 0.8 µM): 0.616
- relative viability (NCI-H1993; first compound 2.53 µM): 0.715
- relative viability (NCI-H1993; first compound 8 µM): 0.657
